How the values were obtained:
[1] = test system: γ-secretase (PS1, PS2) knockout HEK 293T cells; assay: PS1 KO, PS2 KO and PS1/2 dKO HEK 293T cell lines: α-CTF and Aβ40; type: cell-based, human; details: PS1 and PS2 double knockout HEK 293T cells
Protocol: • a) A plasmid expressing the target protein in mammalian cells was constructed, and the protein expression promoter is CAG. • b) The target protein was expressed in HEK 293T cell line. Cells were subcultured one day before transfection, and transfection was performed when the degree of cell adhesion reached 70%-80%. The transfection reagent was lipofectamine2000 (ThermoFisher). • c) 4-6 hours post transfection, the medium were replaced with fresh cell culture medium. • d) 36-48 hours post transfection, the cells were lysed (10% 1M tris-HCl (pH=6.8), 4% SDS, 20% glycerol, 0.01% bromophenol blue), and the protein samples were collected and used for Western blot or stored in a −80° C. freezer. • e) Polyacrylamide gel electrophoresis. Before protein loading, the protein was boiled at 98° C. for 10 min, and then centrifuged at 12000 rpm for 10 min. Electrophoresis: 80V for the upper stacking gel; 120V for the lower separating gel. • f) Protein transfer. […]

[2] = Stability of ApoE2 in conditioned culture medium (Western blot); type: physicochemical; details: 37° C.; 48 hours
Protocol: N=9. […] The original ApoE2-containing culture medium (lane 1), the ApoE2-containing culture medium after incubation with untransfected cells for 48 hours (lane 2), and the ApoE2-containing culture medium separately stored in a 37° C. incubator for 48 hours (lane 3). […] DAPI, nuclear marker. […] MAP2, marker of mature neurons; DAPI, nuclear marker.

ApoE2: human apolipoprotein E2, full-length 299 amino acid residues, SEQ ID NO: 12
α-CTF in PS1/2 dKO cells [1]: did not further increase α-CTF levels | stability in conditioned medium [2]: can exist stably

Reference: US20250108100A1, “C-TERMINAL FRAGMENT OF APOLIPOPROTEIN E AND APPLICATION THEREOF IN INHIBITING y-SECRETASE ACTIVITY” (SYNPHATEC (SHANGHAI) BIOPHARMACEUTICAL TECHNOLOGY CO., LTD., priority 2022, published 2025)
